Our source for the IC50, inhibition and EC50 values is patent US20230150970A1, “AMINOPYRIMIDINE DERIVATIVES AND THEIR USE AS ARYL HYDROCARBON RECEPTOR MODULATORS” (DONG-A ST CO., LTD., priority 2020, published 2023).

Test [1] addresses T1, AhR (Homo sapiens, UniProt P35869).
T1 sequence (P35869 11-848): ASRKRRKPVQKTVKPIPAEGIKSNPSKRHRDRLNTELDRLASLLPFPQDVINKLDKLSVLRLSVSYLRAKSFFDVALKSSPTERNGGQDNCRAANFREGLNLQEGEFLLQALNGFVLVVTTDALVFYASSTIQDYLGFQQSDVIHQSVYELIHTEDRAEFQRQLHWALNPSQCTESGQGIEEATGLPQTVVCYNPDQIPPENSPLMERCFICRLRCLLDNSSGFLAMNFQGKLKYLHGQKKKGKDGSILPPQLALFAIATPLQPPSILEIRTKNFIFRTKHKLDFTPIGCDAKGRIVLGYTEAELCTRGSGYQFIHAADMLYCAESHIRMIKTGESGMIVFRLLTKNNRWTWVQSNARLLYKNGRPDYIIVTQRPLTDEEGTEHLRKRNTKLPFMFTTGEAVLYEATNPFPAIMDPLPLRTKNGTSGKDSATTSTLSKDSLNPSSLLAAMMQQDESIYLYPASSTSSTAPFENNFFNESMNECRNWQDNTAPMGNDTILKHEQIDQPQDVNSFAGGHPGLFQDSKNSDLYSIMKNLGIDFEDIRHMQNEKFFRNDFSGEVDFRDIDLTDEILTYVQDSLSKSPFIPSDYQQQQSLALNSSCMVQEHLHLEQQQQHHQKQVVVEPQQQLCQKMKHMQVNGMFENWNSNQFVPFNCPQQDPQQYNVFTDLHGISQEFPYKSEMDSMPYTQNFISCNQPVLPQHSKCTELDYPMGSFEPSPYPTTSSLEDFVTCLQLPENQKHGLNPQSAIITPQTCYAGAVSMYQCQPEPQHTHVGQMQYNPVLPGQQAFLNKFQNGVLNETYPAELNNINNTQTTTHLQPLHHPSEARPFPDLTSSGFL
The test is described as follows: In Vitro Assay 1: XRE-luciferase reporter assay, antagonism in human cell line (HepG2). Conditions: Assay 1: AhR-Luc Human Antagonism (IC50, nM), 6 hours.
Excerpt: In Vitro XRE-Luciferase Reporter Assay (In Vitro Assay 1, 2, 3) AhR activation leads the induction of target gene expression such as CYP1A1 and CYPIB1 by AhR binding to AhR-responsive DNA elements also known as xenobiotics responsive elements (XREs). The assay for measuring AhR activity herein is the luciferase assay using cell lines transfected with luciferase reporter plasmid containing XREs at the upstream of the reporter gene. Cells transfected with XRE-luciferase reporter (XRE-Luc), plasmid drive luciferase activity reflecting activation and inhibition of AhR in the cells. […] Kynurenine (an endogenous AhR agonist), was used to stimulate cells to test antagonistic properties of the compounds. The half-maximal inhibitory concentration (IC50), or half-maximal effective concentration (EC50), value was calculated using nonlinear regression (four parameters), with Prism8.0 software (GraphPad).
In Vitro Assay 1: Antagonism in Human Cell Line
HepG2 (human hepatoma cell line) cell line with a XRE-luciferase reporter either transiently or stably (Invivogen) were plated in complete medium and incubated at 37° C. in a CO2 incubator. After 24 hours, cells were treated with kynurenine (50* or 200 μM) alone (negative control) or with test compounds for 6 hours. Luciferase activity was measured with a commercial kit such as the Promega Luciferase kit or Invivogen Luciferase kit. Relative luciferase activity (Firefly/Nano-Luc) was used to calculate IC50 values. […] (IC50 values are grouped as A, B, C and D, whereby A: IC50<0.01 μM; B: 0.01<IC50<0.1 μM; C: 0.1<IC50<1.0 μM; D: IC50>1.0 μM)

The target in test [2] is T1, AhR. The test is described as follows: In Vitro Assay 4: endogenous AhR activity assay (CYP1A1 and CYP1B1 mRNA, qRT-PCR, HepG2 cells).
Description: In Vitro Assay 4: Endogenous AhR Activity Assay
HepG2 cells were seeded in 12-well plate (3×10^5 cells/well). A day after seeding, the cells were treated with TCDD (10 nM) alone or with compounds (123 nM) for 4 hours. Total RNA was extracted using Trizol (Thermo Fisher Scientific). cDNA synthesis and quantitative RT-PCR (qRT-PCR) assays were performed using PrimeScript™ RT Master Mix (TAKARA) and TB Green™ Premix Ex Taq™ II (TAKARA) in accordance with manufacturer's instruction. For the measurement of endogenous AhR activity, relative mRNA levels of CYP1A1 and CYP1B1 were quantitated relative to β-actin mRNA by the comparative Ct (ΔΔCt) method. The percent inhibitions were calculated according to:
In test [3] the target is T1, AhR. The test is described as follows: In Vitro Assay 3: XRE-luciferase reporter assay, agonism in human cell line (HepG2). It is filed as cell-based. Set-up: endogenous in cells; host or cells: HepG2. The note with it: HepG2, tryptophan free medium, 6 hours, no agonist, read-out: Assay 3: AhR-Luc Human Agonism (EC50). How it is done: In Vitro Assay 3: Agonism in Human Cell Line
HepG2 (human hepatoma cell line) cells co-transfected with XRE-Luc and Nano-Luc plasmids were plated in tryptophan free medium containing 1% of dialyzed fetal bovine serum and incubated overnight at 37° C. in a CO2 incubator. After 24 hours, cells were treated for 6 hours with test compounds or not. […] As a positive control, cells were incubated with TCDD.

Setting [4] is: values marked *: kynurenine 50 μM.
Setting [5] is: HepG2, read-out: CYP1A1 (% Inhibition).
Where [6] appears, read: HepG2, read-out: CYP1B1 (% Inhibition).
Setting [7] is: unmarked values: kynurenine 200 μM.

Like-named read-outs stand apart in the source and are kept apart here. Where only a bound is given, the exact number is not on record here.

With `CC1CCN(c2cc(-c3ccc(Cl)cc3)nc(-c3cccnc3)n2)CC1` [Example 27, 4-(4-chlorophenyl)-6-(4-methylpiperidin-1-yl)-2-(pyridin-3-yl)pyrimidine], at AhR [1] (setting [4]), the half-maximal inhibitory concentration (IC50) was less than 10 nM. In addition, the figures for the inhibition at 0.123 µM on AhR [2] (setting [5]) and on AhR [2] (setting [6]) were 68.4% and 90.3%, respectively.
Regarding `OCC1CCN(c2cc(-c3ccc(Cl)cc3)nc(-c3cccnc3)n2)CC1` [Example 42, (1-(6-(4-chlorophenyl)-2-(pyridin-3-yl)pyrimidin-4-yl)piperidin-4-yl)methanol], on AhR [1] (setting [4]), the IC50 is less than 10 nM. For the same compound, the inhibition at 0.123 µM at AhR [2] (setting [5]) was determined as 98.8%; at AhR [2] (setting [6]) it was 99.3%.
Taken in the same sequence, the figures for `OCCC1CCN(c2cc(-c3ccc(Cl)cc3)nc(-c3cccnc3)n2)CC1` [Example 43, 2-(1-(6-(4-chlorophenyl)-2-(pyridin-3-yl)pyrimidin-4-yl)piperidin-4-yl)ethan-1-ol] were less than 10 nM, 97.1% and 100%.
With `C[C@@H]1CN(c2cc(-c3ccc(Cl)cc3)nc(-c3cccnc3)n2)C[C@H](C)O1` [Example 70, cis-4-(6-(4-chlorophenyl)-2-(pyridin-3-yl)pyrimidin-4-yl)-2,6-dimethylmorpholine], the IC50 against AhR [1] (setting [4]) was greater than 1000 nM. On AhR [3] (number of the cell), the EC50 worked out at 758 nM.
Consider `Cc1cccc(N2CCN(c3cc(-c4ccc(Cl)cc4)nc(-c4cccnc4)n3)CC2)c1C` [Example 118, 4-(4-chlorophenyl)-6-(4-(2,3-dimethylphenyl)piperazin-1-yl)-2-(pyridin-3-yl)pyrimidine], for which, on AhR [1] (setting [4]), the IC50 was in the range of 10 to 100 nM. For the same compound, the EC50 at AhR [3] (number of the cell) was 1580 nM.
The compound `C[C@@H](O)[C@@H](C)Nc1cc(-c2ccc(Cl)cc2)nc(-c2cccnc2)n1` [Example 144, (2R,3R)-3-((6-(4-chlorophenyl)-2-(pyridin-3-yl)pyrimidin-4-yl)amino)butan-2-ol] had an IC50 against AhR [1] (setting [4]) of 10 to 100 nM. In addition, the EC50 at AhR [3] (number of the cell) worked out at 55.9 nM.
Regarding `CC(=O)N1CCC(Nc2cc(-c3ccc(Cl)cc3)nc(-c3cccnc3)n2)CC1` [Example 146, 1-(4-((6-(4-chlorophenyl)-2-(pyridin-3-yl)pyrimidin-4-yl)amino)piperidin-1-yl)ethan-1-one], the half-maximal inhibitory concentration (IC50) at AhR [1] (setting [4]) lay within 10 to 100 nM. Further, the inhibition at 0.123 µM is 41.8% at AhR [2] (setting [5]) and 77.2% at AhR [2] (setting [6]).
With `COCCN1CCC(CNc2cc(-c3ccc(Cl)cc3)nc(-c3cccnc3)n2)CC1` [Example 170, 6-(4-chlorophenyl)-N-((1-(2-methoxyethyl)piperidin-4-yl)methyl)-2-(pyridin-3-yl)pyrimidin-4-amine], at AhR [1] (setting [4]), the IC50 was 10 to 100 nM. In addition, the EC50 at AhR [3] (class in brackets of the cell) is greater than 10000 nM; at AhR [3] (number of the cell), greater than 30000 nM.
The like results for `CC(CO)N1CCN(c2cc(-c3ccc(Cl)cc3)nc(-c3cccnc3)n2)CC1` (stereo not shown) [Example 224, 2-(4-(6-(4-chlorophenyl)-2-(pyridin-3-yl)pyrimidin-4-yl)piperazin-1-yl)propan-1-ol] were, in that order, less than 10 nM, greater than 10000 nM and greater than 30000 nM.
At AhR [1] (setting [4]), `COCC(=O)NC1CCN(c2cc(-c3ccc(Cl)cc3)nc(-c3cccnc3)n2)CC1` [Example 225, N-(1-(6-(4-chlorophenyl)-2-(pyridin-3-yl)pyrimidin-4-yl)piperidin-4-yl)-2-methoxyacetamide] came in with a 50% inhibitory concentration (IC50) of less than 10 nM. In addition, the figures for the EC50 on AhR [3] (class in brackets of the cell) and on AhR [3] (number of the cell) were greater than 10000 nM and greater than 30000 nM, respectively.
As for `COc1ccc(-c2cc(N3CCC(CO)CC3)nc(-c3cccnc3)n2)cc1` [Example 228, (1-(6-(4-methoxyphenyl)-2-(pyridin-3-yl)pyrimidin-4-yl)piperidin-4-yl)methanol], the half-maximal inhibitory concentration (IC50) against AhR [1] (setting [7]) was in the range of 10 to 100 nM. For the same compound, the inhibition at 0.123 µM stood at 107% on AhR [2] (setting [5]) and 101% at AhR [2] (setting [6]).
With `OCC1CCN(c2cc(-c3ccc(Cl)c(F)c3)nc(-c3cccnc3)n2)CC1` [Example 246, (1-(6-(4-chloro-3-fluorophenyl)-2-(pyridin-3-yl)pyrimidin-4-yl)piperidin-4-yl)methanol], the IC50 against AhR [1] (setting [7]) is less than 10 nM. The EC50 on AhR [3] (class in brackets of the cell) was greater than 10000 nM; at AhR [3] (number of the cell) it was greater than 30000 nM.
As for `OC[C@H]1CCN(c2cc(-c3ccc(C(F)(F)F)cc3)nc(-c3cccnc3)n2)C[C@@H]1O` [Example 260, (3R,4R)-4-(hydroxymethyl)-1-(2-(pyridin-3-yl)-6-(4-(trifluoromethyl)phenyl)pyrimidin-4-yl)piperidin-3-ol], the IC50 against AhR [1] (setting [7]) was less than 10 nM. For the same compound, the EC50 on AhR [3] (class in brackets of the cell) is greater than 10000 nM; on AhR [3] (number of the cell), greater than 30000 nM.
In the case of `OC[C@@H]1CCN(c2cc(-c3ccc(C(F)(F)F)cc3)nc(-c3cccnc3)n2)C[C@H]1O` [Example 262, (3S,4S)-4-(hydroxymethyl)-1-(2-(pyridin-3-yl)-6-(4-(trifluoromethyl)phenyl)pyrimidin-4-yl)piperidin-3-ol], the IC50 on AhR [1] (setting [7]) is less than 10 nM. Besides, the EC50 at AhR [3] (class in brackets of the cell) was greater than 10000 nM; on AhR [3] (number of the cell), greater than 30000 nM.
At AhR [1] (setting [7]), `OCC1CCN(c2cc(-c3ccc(Cl)c(O)c3)nc(-c3cccnc3)n2)CC1` [Example 273, 2-chloro-5-(6-(4-(hydroxymethyl)piperidin-1-yl)-2-(pyridin-3-yl)pyrimidin-4-yl)phenol] displayed a half-inhibitory concentration (IC50) of 10 to 100 nM. Besides, the concentration giving a half-maximal response (EC50) is greater than 10000 nM at AhR [3] (class in brackets of the cell) and greater than 30000 nM at AhR [3] (number of the cell).
At AhR [1] (setting [7]), `OCC1CCN(c2cc(-c3ccc(N4CCOCC4)c(F)c3)nc(-c3cccnc3)n2)CC1` [Example 276, (1-(6-(3-fluoro-4-morpholinophenyl)-2-(pyridin-3-yl)pyrimidin-4-yl)piperidin-4-yl)methanol] gave an IC50 of less than 10 nM. For the same compound, the 50% effective concentration (EC50) at AhR [3] (class in brackets of the cell) was greater than 10000 nM; on AhR [3] (number of the cell), greater than 30000 nM.
`OCC1CCN(c2cc(-c3ccc(OC4CCCCO4)cc3)nc(-c3cccnc3)n2)CC1` (stereo not shown) [Example 278, (1-(2-(pyridin-3-yl)-6-(4-((tetrahydro-2H-pyran-2-yl)oxy)phenyl)pyrimidin-4-yl)piperidin-4-yl)methanol]: the IC50 on AhR [1] (setting [7]) is 10 to 100 nM. Moreover, the concentration for a half-maximal effect (EC50) on AhR [3] (class in brackets of the cell) is greater than 10000 nM; on AhR [3] (number of the cell), greater than 30000 nM.
Consider `OCC1CCN(c2cc(-c3ccc(N4CCOCC4)nc3)nc(-c3cccnc3)n2)CC1` [Example 289, (1-(6-(6-morpholinopyridin-3-yl)-2-(pyridin-3-yl)pyrimidin-4-yl)piperidin-4-yl)methanol], for which the half-inhibitory concentration (IC50) against AhR [1] (setting [7]) is less than 10 nM. Moreover, the results for the EC50 on AhR [3] (class in brackets of the cell) and at AhR [3] (number of the cell) were greater than 10000 nM and greater than 30000 nM, respectively.
Taken in the same sequence, the figures for `O[C@H]1CON(c2cc(-c3ccc(C(F)(F)F)cc3)nc(-c3cccnc3)n2)C1` [Example 314, (R)-2-(2-(pyridin-3-yl)-6-(4-(trifluoromethyl)phenyl)pyrimidin-4-yl)isoxazolidin-4-ol] were less than 10 nM, greater than 10000 nM and greater than 30000 nM.
Turning to `O=S(=O)(C(F)F)N1CCN(c2cc(-c3ccc(Cl)cc3)nc(-c3cccnc3)n2)CC1` [Example 339, 4-(4-chlorophenyl)-6-(4-((difluoromethyl)sulfonyl)piperazin-1-yl)-2-(pyridin-3-yl)pyrimidine], the half-inhibitory concentration (IC50) at AhR [1] (setting [7]) lay in the range of 10 to 100 nM. On AhR [2] (setting [5]), the inhibition at 0.123 µM was 84.7%.
`O=S(=O)(CCO)N1CCN(c2cc(-c3ccc(C(F)(F)F)cc3)nc(-c3cccnc3)n2)CC1` [Example 349, 2-((4-(2-(pyridin-3-yl)-6-(4-(trifluoromethyl)phenyl)pyrimidin-4-yl)piperazin-1-yl)sulfonyl)ethan-1-ol] yielded a concentration for half-maximal inhibition (IC50) against AhR [1] (setting [7]) of less than 10 nM. The inhibition at 0.123 µM at AhR [2] (setting [5]) was determined as 97.6%.
On AhR [1] (setting [7]), `O=C(CCCO)N1CCN(c2cc(-c3ccc(Cl)cc3)nc(-c3cccnc3)n2)CC1` [Example 361, 1-(4-(6-(4-chlorophenyl)-2-(pyridin-3-yl)pyrimidin-4-yl)piperazin-1-yl)-4-hydroxybutan-1-one] registered an IC50 of less than 10 nM. Besides, the half-maximal effective concentration (EC50) at AhR [3] (class in brackets of the cell) was greater than 10000 nM; on AhR [3] (number of the cell) it was greater than 30000 nM.
